# Where two headings read alike, the source gives them in different places.
# Assays:
# Diplococci = assay: In vivo activity in experimentally infected mice, Diplococci (PD50); settings: Mus musculus, oral, read-out: PD50 (dose that provides 50% protection)
# Description: (§1) These tests were run by preparing tubes of nutrient broth with gradually increasing concentrations of the pure antibiotic and then seeding the broths with the particular organism specified. […] The tests were conducted under standardized conditions as described in Proc. Soc. Exp. Biol. & Med. 122, ll07 (1966). Tables II and III illustrate the in vivo activity of these new antibiotics in experimentally infected mice.
# (§2) *Dose that provides 50% protection?
# [1] = test system: S. aureus (multi-resistant); assay: Minimal inhibitory concentration, nutrient broth tube dilution, S. aureus (multi-resistant); format: cell-based; settings: Staphylococcus aureus
# Description: as §1
# Staphylococci = assay: In vivo activity in experimentally infected mice, Staphylococci (PD50); settings: Mus musculus, read-out: PD50 (dose that provides 50% protection)
# Description: as §1, §2
# M. tuber. H37Rv = assay: Minimal inhibitory concentration, nutrient broth tube dilution, M. tuberculosis; format: cell-based; settings: Mycobacterium tuberculosis
# Description: as §1
# M. tuberculosis = M. tuberculosis infection in mice, survival; format: in vivo; settings: evaluated at 53 days post challenge; for Percent Survival: control 20; for Average Survival Time: control 37.7
# Description: as §1
# M. tuberculosis Infection in Mice
# *Evaluated at 53 days post challenge
# Staphylococcus aureus = assay: Minimal inhibitory concentration, nutrient broth tube dilution, Staphylococcus aureus; format: cell-based
# Description: as §1
# Streptococcus pyogenes = assay: Minimal inhibitory concentration, nutrient broth tube dilution, Streptococcus pyogenes; format: cell-based
# Description: as §1
# Streptococci = assay: In vivo activity in experimentally infected mice, Streptococci (PD50); settings: Mus musculus, oral, read-out: PD50 (dose that provides 50% protection)
# Description: as §1, §2
# [2] = Antibiotic properties of hexahydro derivatives compared with parent compounds; settings: compared with the parent compound
Compound,ED50 (Diplococci) [mg/kg],MIC [1] [ng/mL],ED50 (Staphylococci; oral) [mg/kg],"ED50 (Staphylococci; sc, subcutaneous) [mg/kg]",MIC (M. tuber. H37Rv) [ng/mL],Percent Survival (M. tuberculosis; daily dose 0.5 mg) [%],Average Survival Time (M. tuberculosis; daily dose 0.5 mg) [days],Percent Survival (M. tuberculosis; daily dose 5.0 mg) [%],Average Survival Time (M. tuberculosis; daily dose 5.0 mg) [days],MIC (Staphylococcus aureus) [ng/mL],MIC (Streptococcus pyogenes) [ng/mL],ED50 (Streptococci) [mg/kg],antibiotic properties / antibiotic activity [2]
COC1C=COC2(C)Oc3c(C)c(O)c4c(O)c(c(SC)c(O)c4c3C2=O)NC(=O)C(C)=CC=CC(C)C(O)C(C)C(O)C(C)C(OC(C)=O)C1C (stereo not shown) [3-methylthiorifamycin SV],8,1.9 to 3.9,1.1,0.65,15,70,44.3,100,53.0,1.9,1.9,0.22,
COC1C=COC2(C)Oc3c(C)c(O)c4c(c3C2=O)C(=O)C(SC)=C(NC(=O)C(C)=CC=CC(C)C(O)C(C)C(O)C(C)C(OC(C)=O)C1C)C4=O (stereo not shown) [3-methylthiorifamycin S],> 12.5,1.2 to 3.9,1.4,0.17,6,,,,,0.4,0.9,0.6,
hexahydro-3-methylthiorifamycin S,,,,,,,,,,,,,comparable to those of the parent compounds
hexahydro derivative of 3-methylthiorifamycin SV,,,,,,,,,,,,,comparable to those of the parent compounds

# Source: patent publication US4062944A, “Mixture of antibiotics produced by new species of micromonospora” (Pfizer Inc., priority 1976, dated 1977)
